Tests used:
[1] = pH 7; cited from earlier work
[2] = tested on: tet operator (tetO); test: Electrophoretic gel mobility shift assay (EMSA), operator binding and release by inducer; conditions: ethametsulfuron repressor protein (L7A11) on TetO (FIG. 7)
[3] = tested on: lacZ under control of the tetA promoter (PtetA) in E. coli KM3; assay type: cell-based; conditions: L1 hits, SU compounds at 20 μg/ml

## COC(=O)c1sccc1S(=O)(=O)NC(=O)Nc1nc(C)nc(OC)n1 [Harmony®, Thifensulfuron-methyl]
[1]
  logP: ~0.02

## Cc1c2c(c(O)c3c(O)cccc13)C(=O)[C@]1(O)C(=O)C(C(N)=O)=C(O)[C@@H](N(C)C)[C@@H]1C2 [atc, anhydrotetracycline]
[2]
  operator release by inducer: No change in operator release

## CCOC(=O)c1ccccc1S(=O)(=O)NC(=O)Nc1nc(Cl)cc(OC)n1 [chlorimuron, Chlorimuron-ethyl, reference compound]
[3]
  potency as activator compared with Harmony®: more potent activators than the starting ligand Harmony®

## COc1nc(C)nc(NC(=O)NS(=O)(=O)c2ccccc2Cl)n1 [chlorsulfuron, 2 chloro N ((4 methoxy 6 methy 1,3,5 triazine 2 yl)aminocarbonyl)benzenesulfonamide, reference compound]
[3]
  potency as activator compared with Harmony®: more potent activators than the starting ligand Harmony®

## CCOc1nc(NC)nc(NC(=O)NS(=O)(=O)c2ccccc2C(=O)OC)n1 [ethametsulfuron, Ethametsulfuron-methyl, reference compound]
[2]
  operator release by inducer: inducer preference for operator release by Es compared to Cs
[3]
  potency as activator compared with Harmony®: more potent activators than the starting ligand Harmony®
